biological target: T1, rat NaPi-2b (Rattus norvegicus, UniProt Q9JJ09); test: Sodium-dependent phosphate uptake of Xenopus oocytes which expressed NaPi-2b (32P); type: cell-based; settings: Xenopus oocytes expressing rat NaPi-2b, 32P radioactive phosphorus; read-out: IC50 (phosphate uptake inhibitory activity)
T1 construct: expressed in transfected cells; host or cells: Xenopus oocytes injected with cRNA
T1 sequence (Q9JJ09 1-695): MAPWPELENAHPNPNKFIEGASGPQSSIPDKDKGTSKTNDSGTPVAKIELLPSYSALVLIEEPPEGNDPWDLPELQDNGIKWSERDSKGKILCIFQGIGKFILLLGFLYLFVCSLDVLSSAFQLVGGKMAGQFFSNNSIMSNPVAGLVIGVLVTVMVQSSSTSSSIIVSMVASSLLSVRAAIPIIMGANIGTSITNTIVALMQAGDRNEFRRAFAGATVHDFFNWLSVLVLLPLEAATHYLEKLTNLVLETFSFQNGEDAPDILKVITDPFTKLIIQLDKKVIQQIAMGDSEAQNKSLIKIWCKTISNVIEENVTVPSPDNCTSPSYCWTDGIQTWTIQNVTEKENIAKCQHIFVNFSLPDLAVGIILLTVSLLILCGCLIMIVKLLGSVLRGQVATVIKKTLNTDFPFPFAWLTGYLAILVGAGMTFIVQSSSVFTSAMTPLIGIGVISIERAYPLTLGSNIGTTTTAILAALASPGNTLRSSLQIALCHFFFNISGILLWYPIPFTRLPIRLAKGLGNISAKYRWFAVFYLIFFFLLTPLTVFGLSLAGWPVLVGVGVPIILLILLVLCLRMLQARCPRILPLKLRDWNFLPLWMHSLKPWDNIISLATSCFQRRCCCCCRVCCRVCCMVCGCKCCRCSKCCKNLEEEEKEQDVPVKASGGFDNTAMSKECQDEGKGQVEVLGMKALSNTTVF
Outline: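 Steps: rat NaPi-2b cDNA cloned from small intestine; cRNA made and injected into oocytes; 2-day expression; 32P phosphate uptake with compound; % inhibition at 300/100 μM taken from one curve.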

Row | Compound | IC50 [µM]
1 | O=C(Nc1ccc(Br)cc1C(=O)N/N=C/c1ccc(Cl)c(C(F)(F)F)c1)c1ccno1 [Compound 513, Isoxazole-5-carboxylic acid [4-bromo-2-(4-chloro-3-trifluoromethyl-benzylidene-hydrazinocarbonyl)-phenyl]-amide] | 16
2 | CCN(CC)CCN(C)Cc1cccc(C(=O)Nc2cc(OCCOC)c(OCCOC)cc2C(=O)N/N=C/c2ccc(C)c(C)c2)c1 [Compound 1030, 3-{[(2-Diethylamino-ethyl)-methyl-amino]-methyl}-N-[2-(3,4-dimethyl-benzylidene-hydrazinocarbonyl)-4,5-bis-(2-methoxy-ethoxy)-phenyl]-benzamide] | 14.2
3 | Cc1csc(NC(=O)c2cccc(CSc3nc[nH]n3)c2)c1C(=O)N/N=C/c1cccc(F)c1 [Compound 554, N-[3-(3-Fluoro-benzylidene-hydrazinocarbonyl)-4-methyl-thiophen-2-yl]-3-(1H-[1,2,4]triazol-3-ylsulfanylmethyl)-benzamide] | 1.46
4 | Cc1ccc(/C=N/NC(=O)c2cscc2NC(=O)c2cccc(CN3CCN(CCO)CC3)c2)cc1C [Compound 982, N-[4-(3,4-Dimethyl-benzylidene-hydrazinocarbonyl)-thiophen-3-yl]-3-[4-(2-hydroxy-ethyl)-piperazin-1-ylmethyl]-benzamide] | 8.05
5 | COc1ccc(/C=N/NC(=O)c2cc(N3CCCCC3)ccc2NC(=O)c2cccc(CN3CCc4nc5ncccc5cc4C3)c2)cc1 [Compound 898, 3-(7,8-Dihydro-5H-1,6,9-triaza-anthracen-6-ylmethyl)-N-[2-(4-methoxy-benzylidene-hydrazinocarbonyl)-4-piperidin-1-yl-phenyl]-benzamide] | < 0.3
6 | O=C(Nc1ccc(Br)cc1C(=O)N/N=C/c1cccc(F)c1)c1ccc(CN2CCN(CC(=O)N3CCOCC3)CC2)cc1 [Compound 731, N-[4-Bromo-2-(3-fluoro-benzylidene-hydrazinocarbonyl)-phenyl]-4-[4-(2-morpholin-4-yl-2-oxo-ethyl)-piperazin-1-ylmethyl]-benzamide] | 19.2
7 | O=C(Nc1ccc(Br)cc1C(=O)N/N=C/c1cccc(F)c1)c1ccc(CN2CCC(CO)CC2)cc1 [Compound 336, N-[4-Bromo-2-(3-fluoro-benzylidene-hydrazinocarbonyl)-phenyl]-4-(4-hydroxymethyl-piperidin-1-ylmethyl)-benzamide] | 16.6
8 | COc1ccc(/C=N/NC(=O)c2c(NC(=O)c3cccc(CN(CC(C)O)CC(C)O)c3)sc3c2CCC3)cc1 (stereo not drawn) [Compound 809, 3-{[Bis-(2-hydroxy-propyl)-amino]-methyl}-N-[3-(4-methoxy-benzylidene-hydrazinocarbonyl)-5,6-dihydro-4H-cyclopenta[b]thiophen-2-yl]-benzamide] | 5.22
9 | COc1ccc(C(=O)Nc2ccccc2C(=O)N/N=C/c2cccc(Cl)c2)cc1OC [Compound 35, N-[2-(3-Chloro-benzylidene-hydrazinocarbonyl)-phenyl]-3,4-dimethoxy-benzamide] | 3.23
10 | CN(CCO)Cc1ccc(C(=O)Nc2ccc(Cl)cc2C(=O)N/N=C/c2ccc(Cl)c(C(F)(F)F)c2)cc1 [Compound 417, N-[4-Chloro-2-(4-chloro-3-trifluoromethyl-benzylidene-hydrazinocarbonyl)-phenyl]-4-{[(2-hydroxy-ethyl)-methyl-amino]-methyl}-benzamide] | < 3

same assay, conditions: phosphate uptake, oocytes expressing rat NaPi-2b; 300 μM, determined from inhibition curve

Row | Compound | inhibition at 300 µM [%]
11 | CCN1CC(NCc2ccc(-c3nc4ccc(Br)cc4c(=O)n3/N=C/c3ccc(OC)cc3)cc2)CN1CC [Compound 755, 6-Bromo-2-{4-[(1,2-diethyl-pyrazolidin-4-ylamino)-methyl]-phenyl}-3-[(4-methoxy-benzylidene)-amino]-3H-quinazolin-4-one] | 67.3
12 | COc1ccc(C(=O)Nc2ccc(Br)cc2C(=O)N/N=C/c2ccccn2)cc1OC [Compound 243, N-[4-Bromo-2-(pyridin-2-ylmethylene-hydrazinocarbonyl)-phenyl]-3,4-dimethoxy-benzamide] | 50.2
